Laboratory results from US20260355171A1, “INHIBITORS AND USES THEREFOR” (priority 2022, published 2026).

Tests used:
[1] = test system: primary neurons expressing SARS-CoV-2 NSP5 (AAV9-NSP5-V5); assay: Effect on neurons in the presence of NSP5 (AAV9-NSP5-V5, immunofluorescence); assay type: cell-based, mouse; settings: 0.4, 2, 10 or 50 μM, two days
primary neurons = assay: Neuronal cell death in the presence of NMDA; assay type: cell-based, mouse; settings: 1 or 10 μM compound, 100 μM NMDA
Description: Primary neurons were treated with 0.4, 1, 2, 10 or 50 μM of compound 2 or compound 22 (prepared according to Example 2). NSP5 was added to primary neurons at DIV11, and compound 2 or 22 was added 48 hours later. Cells were treated with propidium iodide 48 hours after compound addition. Cells were washed with PBS and fixed with 4% PFA. Cells were then washed and stained with DAPI. Images of cells were taken with ZEISS Axioscan 7 microscope slide scanner. Cell death was determined by Image J analysis, counting the death cell (red, PI)) vs all cells (blue, DAPI).
One hour after compound addition (1 or 10 μM of compound 2 or compound 22) neurons were treated with a cytotoxic agent (100 μM N-methyl-D-aspartate (NMDA), 100 μM H2O2 or 5 μM staurosporine). One hour after treatment with the cytotoxic agent, the media was replaced with fresh media and the neurons were incubated for 24 hours. A final concentration of 1 μM propidium iodide (PI) was added into the well and incubated for 5 mins. Cells were washed with phosphate-buffered saline (PBS) and then fixed with 4% PFA. Cells were then washed and stained with DAPI, and cell death determined as described above.

[2] = Mouse pharmacokinetics, IP administration; assay type: in vivo
Description: Pharmacokinetic parameters of compound 22 (prepared in accordance with Example 2) were determined following intravenous (IV, 3 mg/kg) and intraperitoneal (IP, 10 mg/kg) administration to male C57BL/6 mice.
IV and IP formulations were prepared separately by dissolving solid compound 22 in dimethyl sulfoxide (DMSO) prior to addition of 50 mM phosphate buffered saline (pH 6.5) using vortexing and sonication to produce a colourless solution, and giving a final DMSO concentration of 5% (v/v) for each formulation. The IV formulation was filtered through a 0.22 μm syringe filter prior to dosing, whereas the IP formulation was not filtered.
The pharmacokinetics of compound 22 was studied in non-fasted male C57BL/6 mice weighing 21.1-26.5 g. Mice had access to food and water ad libitum throughout the pre- and post-dose sampling period.
Compound 22 was dosed to mice by bolus injection into the lateral tail vein (2 mL/kg) for IV administration and by injection into the IP cavity (5 mL/kg) for IP administration. After dosing, blood samples were collected up to 24 h (n=3 mice per time point) with a maximum of three samples from each mouse via submandibular bleed (approximately 120 μL). No urine samples were collected as mice were housed in bedded cages. Blood was collected into polypropylene Eppendorf tubes containing heparin as anticoagulant. Once collected, blood samples were centrifuged immediately, supernatant plasma was removed, and stored at −80 °C until analysis by liquid chromatography-mass spectrometry (LC-MS). A summary of the bioanalytical method is included in Table 5.
Concentrations of test compound in plasma and tissue samples were determined using a liquid chromatography with tandem mass spectrometry (LCMS/MS) method validated for linearity, accuracy, precision, matrix factor and recovery (refer to Table 5).
Plasma: The plasma calibration curve was prepared by spiking aliquots of blank mouse plasma (25 μL) with test compound standard solutions (5 μL) and internal standard solution (5 μL of diazepam, 5 μg/mL in 50% acetonitrile in water). Test plasma samples (25 μL) were thawed, mixed and then spiked with internal standard solution (5 μL). Plasma protein precipitation was performed by addition of acetonitrile (3-fold volume ratio) and thorough vortex mixing. Samples were centrifuged (RCF=9391×g) for 3 minutes and the supernatant (100 μL) was collected for analysis. The analysis of blood/plasma (B/P) partitioning samples was conducted similarly as for the plasma samples, using protein precipitation with acetonitrile as described above.
The plasma concentration versus time profile was defined by the average plasma concentration at each sample time, and PK parameters were calculated using non-compartmental methods (PKSolver Version 2.0). Standard calculations for each pharmacokinetic parameter are listed below.

[3] = mouse, plasma, IP 10 mg/kg, male C57BL/6 mice

In the case of `NC(=O)C1CCN(c2ncccc2CNCc2cccc3[nH]ccc23)CC1` [Compound 22], the “Prevention of NSP5-induced neuronal death” value [1] was “prevented NSP5-induced neuronal death in a dose-dependent manner”, the “Protection from NMDA-induced neurotoxicity” value (primary neurons) was “did not protect” and the “BA (apparent bioavailability)” value ([2]; IP 10 mg/kg, truncated AUC0-7.5 h, likely slight underestimation, 10 mg/kg, 450 min) was 47.3%. It also gave a bioavailability at 7.5 h ([2]; mouse, plasma, ip, 10 mg/kg, truncated AUC0-7.5 h, likely slight underestimation, read-out: BA (apparent bioavailability)) of 47%, a Cmax [2, 3] of 4.25 µM and a Tmax [2, 3] of 15 min. It also gave an AUC(0-t) ([2]; mouse, plasma, IP 10 mg/kg, male C57BL/6 mice, read-out: Plasma AUC0-last) of 2.56 µM·h.
